Source: article PMC8622623, “Histamine H3 Receptor Ligands—KSK-59 and KSK-73—Reduce Body Weight Gain in a Rat Model of Excessive Eating” (Pharmaceuticals, 2021)

Legend:
[1] = Pharmacokinetics after single i.p. administration; format: in vivo; conditions: single i.p. 10 mg/kg; for AUC(0-inf) / Cmax / Tmax / CL/F / MRT / k el / Vd/F / half-life: ip; for AUC(0-inf): heading: AUC0-inf; for CL/F: read-out: CLS/F (clearance) (converted); for MRT: read-out: MRT (mean residence time); for k el: read-out: λz (terminal elimination rate constant) (converted); for Vd/F / half-life: rat, plasma; for Vd/F: n = 3, read-out: Vz/F (volume of distribution); for half-life: n = 3, read-out: t0.5λz (half-life) (converted)
Procedure: Six rats divided into two experimental groups were used in pharmacokinetic experiments. Three days before the experiment, rats’ jugular vein was cannulated allowing for the multiple blood sampling from the single animal. Investigated compounds suspended in 1% Tween 80 were administered i.p. at the single dose of 10 mg/kg. Blood samples (approximately 300 µL) were collected to Eppendorf tubes containing heparin at 5, 15, 30, 60, 120, 240 and 360 min after dosing. Plasma was harvested by centrifuging at 5000× g for 10 min and stored at −30 °C until bioanalysis.
Plasma concentrations of KSK-59 or KSK-73 were measured by liquid chromatography tandem mass spectrometry (LC-MS/MS) method. Samples (50 μL) were deproteinized at the ratio of 1:3 (v/v) with acetonitrile containing an internal standard (IS—pentoxifiline), briefly vortexed and then centrifuged for 10 min at the speed of 8000× g (Eppendorf miniSpin centrifuge). The supernatant was transferred into the autosampler vials and a sample volume of 10 μL was injected into LC-MS/MS system.
Chromatographic separation was carried out on XBridge™ C18 (3 × 50 mm, 5 µm, Waters, Dublin, Ireland) analytical column using the HPLC system Agilent 1100 (Agilent Technologies, Waldbronn, Germany). The mobile phase containing 0.1% formic acid in acetonitrile and in water was run at 0.3 mL/min in the gradient mode. Mass spectrometric detection was performed on an Applied Biosystems MDS Sciex (Concord, ON, Canada) API 2000 triple quadrupole mass spectrometer. Electrospray ionization (ESI) in the positive ion mode was used for ion production. The tandem mass spectrometer was operated at unit resolution in the selected reaction monitoring mode (SRM), monitoring the transitions of the protonated molecular ions m/z 382 to 107 for KSK-59, m/z 410 to 107 for KSK-73 and m/z 279 to 181 for IS. Data acquisition and processing were accomplished using the Applied Biosystems Analyst version 1.6 software. The calibration curves were constructed by plotting the ratio of the peak area of the studied compound to IS versus drug concentration and generated by weighted (1/x·x) linear regression analysis. The validated quantitation ranges were from 1 to 2000 ng/mL. Calculated accuracy and precision were within the ranges proposed by guidelines for bioanalytical methods validation (FDA, EMA). No significant matrix effect was observed and there were no stability related problems during the routine analysis of the samples.
Pharmacokinetic parameters were calculated by employing a non-compartmental approach, using Monolix version 2019R1 (Antony, France: Lixoft SAS, 2019) software. The area under the mean plasma concentration versus time curve extrapolated to infinity (AUC0-inf) was estimated using the log/linear trapezoidal rule. AUMC0-inf was estimated by calculation of total area under the first-moment curve by combining trapezoid calculation of AUMC0-t and extrapolated area. The mean residence time (MRT) was calculated from AUMC0-inf/AUC0-inf. The terminal rate constant (λz) was calculated by log-linear regression of the drug concentration data in the terminal phase and the terminal half-life (t1/2) were calculated as 0.693/λz. The clearance (CL/F) was estimated from the administered dose divided by AUC0-inf. The apparent volume of distribution during terminal phase (Vz/F) was calculated from (CL/F)/λz.

H3 histamine receptor = target: T1, H3 histamine receptor (Homo sapiens, UniProt Q9Y5N1); experiment: Aequoscreen intrinsic activity assay (antagonist dose-response); format: cell-based
T1 construct: host or cells: recombinant frozen ready-to-use cells
Procedure: Intrinsic activity studies were performed by two methods, Aequoscreen and Lance cAMP assays according to the manufacturer of the ready to use cells with stable expression of the H3 histamine receptor (Perkin Elmer, Waltham, MA, USA).
The Aequoscreen technology uses the recombinant cell lines with stable co-expression of apoaequorin and a GPCR as a system to detect activation of the receptor, following addition of an agonist, via the measurement of light emission. For measurement cells (frozen, ready to use) were thawed and resuspended in 10 mL of an assay buffer containing 5 μM of coelenterazine h. Then cells suspension was placed in a 10 mL Falcon tube, fixed onto a rotating wheel and incubated overnight at RT° in the dark. Cells were diluted with assay buffer to 5000 cells/20 µL. Agonistic ligands 2× (50 μL/well), diluted in assay buffer, were prepared in 1/2 area white polystyrene plates, and the 50 μL of cell suspension was dispensed on the ligands using the injector. The light emission was recorded for 20 s. Cells were incubated with antagonist for 15 min at RT°. Then 50 µL of agonist (3 × EC80 final concentration) was injected onto the mixture of cells and antagonist and the light emission was recorded for 20 s.

[2] = test system: non-obese rats fed palatable diet; experiment: Intraperitoneal glucose tolerance test after 28 administrations; format: in vivo, female Wistar rats; conditions: for blood glucose levels at 30 or/and 60 min after glucose load: KSK compounds 10 mg/kg b.w. or bupropion/naltrexone, glucose 1 g/kg i.p., vs control fed palatable feed; for AUC of IPGTT: vs control rats fed high-calorie feed
Procedure: The test was performed on the 29th day of the experiment. After twenty-eight administrations of the test compounds, food was discontinued for 20 h and then glucose tolerance was tested. Glucose (1 g/kg b.w.) was administrated i.p.. […] The area under the curve (AUC) was calculated using the trapezoidal rule.

[3] = test system: non-obese rats fed palatable diet; experiment: Spontaneous activity (RFID TraffiCage); format: in vivo, female Wistar rats; conditions: KSK compounds 10 mg/kg, vs control fed palatable diet; for spontaneous activity after chronic administration: 27th day, i.p.; for spontaneous activity after first administration: day 1, i.p.
Procedure: The spontaneous activity of rats was measured on the 1st and 27th day of the treatment with a special RFID-system—TraffiCage (TSE-Systems, Germany). The animals were subcutaneously implanted with transmitter identification (RFID), which enabled the presence and time spent in different areas of the cage to be counted and then the data were grouped in a special computer program.

[4] = test system: non-obese rats fed palatable diet; experiment: Plasma lipids, hormones, corticosterone, CRP and IL-6 at end of chronic experiment; format: in vivo, female Wistar rats; conditions: for plasma triglyceride levels: day 31, palatable feed + treatment, compared to rats fed standard feed
Procedure: On the 31st day of the experiment, 20 min after i.p. administration of heparin (5000 units/rat) and thiopental (70 mg/kg b.w.), blood was collected from the left carotid artery and then centrifuged at 600× g (15 min, 4 °C) in order to obtain the plasma. To determine total cholesterol, HDL-cholesterol, LDL-cholesterol or triglyceride levels in plasma, standard enzymatic and spectrophotometric tests (Biomaxima S.A. Lublin, Poland) were used. The ELISA Kit (Cayman Chemical, USA) assay was used to determine corticosterone levels in plasma. To determine IL-6, ghrelin, adiponectin, leptin and C-reactive protein levels in plasma, standard ELISA Kit (Bioassay Technology Laboratory, Shanghai, China) was used.

T1 sequence (Q9Y5N1 whole entry): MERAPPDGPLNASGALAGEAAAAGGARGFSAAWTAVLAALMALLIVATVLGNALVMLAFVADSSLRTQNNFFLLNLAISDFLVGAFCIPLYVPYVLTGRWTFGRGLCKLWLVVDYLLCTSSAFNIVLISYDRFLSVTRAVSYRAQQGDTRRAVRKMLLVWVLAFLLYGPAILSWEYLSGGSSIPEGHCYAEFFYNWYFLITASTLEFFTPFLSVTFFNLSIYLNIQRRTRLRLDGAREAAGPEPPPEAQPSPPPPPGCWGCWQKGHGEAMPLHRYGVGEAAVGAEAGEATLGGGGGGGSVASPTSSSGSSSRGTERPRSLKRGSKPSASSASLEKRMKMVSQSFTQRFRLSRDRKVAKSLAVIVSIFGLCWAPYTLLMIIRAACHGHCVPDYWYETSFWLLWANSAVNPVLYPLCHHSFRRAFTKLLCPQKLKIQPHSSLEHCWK

Row | SMILES | AUC(0-inf) ([1]; 10 mg/kg, rat plasma, n = 3) | Cmax ([1]; rat plasma, n = 3) | Tmax ([1]; rat plasma, n = 3) | CL/F ([1]; rat plasma, n = 3) | MRT ([1]; rat plasma, n = 3) | k el ([1]; rat plasma, n = 3) | time at which Cmax was reached (first sampling point) ([1]; rat plasma) | Vz/F (volume of distribution) ([1]; rat plasma, n = 3, 10 mg/kg) | t0.5λz (half-life) ([1]; rat plasma, n = 3, 10 mg/kg) | Vd/F ([1]; 10 mg/kg) | half-life ([1]; 10 mg/kg) | IC50 (H3 histamine receptor) | blood glucose levels at 30 or/and 60 min after glucose load [2] | AUC of IPGTT [2] | spontaneous activity after chronic administration [3] | spontaneous activity after first administration [3] | plasma triglyceride levels [4] | plasma adiponectin level ([4]; day 31, vs control rats fed palatable feed)
1 | CC(=O)c1ccc(OCCCCCCN2CCN(c3ccncc3)CC2)cc1.O=C(O)C(=O)O [KSK-59, 1-(4-((6-(4-(pyridin-4-yl)piperazin-1-yl)hexyl)oxy)phenyl)ethan-1-one oxalate] | 538 ng·h/mL | 96 ng/mL | 4.98 min | 1120 mL/min/kg | 2.04 h | 0.000122 s⁻¹ | 5 min | 152.22 L/kg | 1.58 h | 152 L/kg | 1.6 h | 3.31 ± 3.2 nM | significantly lower | statistically significantly decreased | did not affect spontaneous activity | did not affect spontaneous activity | statistically significantly higher | Significantly lower level of adiponectin
2 | CC(=O)c1ccc(OCCCCCCCCN2CCN(c3ccncc3)CC2)cc1.O=C(O)C(=O)O [KSK-73, 1-(4-((8-(4-(pyridin-4-yl)piperazin-1-yl)octyl)oxy)phenyl)ethan-1-one oxalate] | 888 ng·h/mL | 216 ng/mL | 4.98 min | 675 mL/min/kg | 4.2 h | 5.28e-05 s⁻¹ | 5 min | – | – | 216 L/kg | 3.7 h | 20.6 ± 4.5 nM | significantly lower | statistically significantly decreased | no such changes were observed | statistically significant decrease in spontaneous activity | comparable to the ones observed in rats from the control group fed standard feed | –
